Where “and” joins values, the source holds several entries; their conditions need not be identical. Equal values may be shown once. Read-outs that look alike come from different tables or passages of the source. Each block holds one compound with its values, some of them ahead of it.
How the values were obtained:
CYP19A1 = target: T1, CYP19A1 (Homo sapiens, UniProt P11511); assay: In cell activity assay for CYP19A1 (dibenzylfluorescein conversion, HEK293 T-Rex cells); type: cell-based; settings: for % Enzyme Activity: CYP19A1, dark
T1 sequence (P11511 1-503): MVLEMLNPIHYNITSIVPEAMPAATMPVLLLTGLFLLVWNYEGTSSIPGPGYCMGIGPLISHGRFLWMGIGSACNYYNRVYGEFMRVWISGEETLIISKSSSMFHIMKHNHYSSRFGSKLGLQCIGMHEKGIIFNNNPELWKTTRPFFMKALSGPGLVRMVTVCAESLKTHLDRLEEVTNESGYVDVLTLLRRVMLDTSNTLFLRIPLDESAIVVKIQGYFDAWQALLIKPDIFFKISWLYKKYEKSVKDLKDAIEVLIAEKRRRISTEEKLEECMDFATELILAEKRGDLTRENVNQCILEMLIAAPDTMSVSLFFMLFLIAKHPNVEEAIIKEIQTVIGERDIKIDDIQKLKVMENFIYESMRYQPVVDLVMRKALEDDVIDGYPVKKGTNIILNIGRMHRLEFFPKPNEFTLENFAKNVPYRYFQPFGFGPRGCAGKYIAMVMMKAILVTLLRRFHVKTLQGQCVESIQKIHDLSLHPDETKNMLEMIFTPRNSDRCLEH
Description: Thus, the activity against CYP19A1 was evaluated using a recently developed in-cell fluorometric assay.
REE or DBF was added as described above.

[1] = test system: cytochrome P450 enzymes in pooled human liver microsomes; assay: Inhibition of cytochrome P450 enzymes in pooled human liver microsomes (phLM); type: biochemical; settings: human, pooled human liver microsomes, pH 7.8, probe 7-benzoyloxy-4-trifluoromethylcoumarin, 50 µM; Dark; conversion of 7-benzoyloxy-4-trifluoromethylcoumarin
Text: (§1) Pooled human liver microsomes were used to test the potential impact of the inhibitors on multiple polymorphisms of highly promiscuous, drug metabolizing CYPs[27]. There are more than 10 different CYPs in this preparation, and the use of pooled microsomes ensures that genetic variability in CYPs is represented. […] This is notable, as the liver CYPs have evolved to bind the widest possible variety of molecules.
(§2) Commercial preparations of pooled human liver microsomes come from 50 individuals, providing representation of biologically relevant CYP variants. Compounds were screened for inhibition of cytochrome P450 enzymes in phLMs using a 96-well kinetic assay. […] Compound stocks were diluted in dose–response, and added in 100 mM potassium phosphate buffer pH 7.8 with 50 µM 7-benzoyloxy-4-trifluoromethylcoumarin (Corning, prepared as a 10 mM DMSO stock) and 16 µg of phLMs (XenoTech, prepared as 20 mg protein/mL suspended in 250 mM sucrose) per well (n = 3). The compounds were incubated for 5 min in the absence of light at 25 °C. The 96-well plate was then either protected from light or irradiated with red light for 1 h (660 nm, 58.7 J/cm^2). Enzymatic turnover was initiated upon addition of NADPH (TCI, prepared immediately prior to addition) at a concentration 1.2 mM per well. To determine background fluorescence from the assay, NADPH was omitted from several control wells. The reactions were immediately placed in a SpectraFluor Plus plate reader (Tecan) preheated to 37 °C, and fluorescence measurements taken every 3 min for 120 min with excitation of 435 nm and emission of 525 nm. Fluorescence measurements in the […], and the data was processed with GraphPad Prism 6. The linear portion of the signal for each dose point with respect to time was first fitted to a line to determine the rate. The resulting slope of these lines was then plotted against the logarithmic concentration of the study compound to provide a dose–response curve.

CYP1B1 D333N = target: T2, CYP1B1 D333N (Homo sapiens, UniProt Q16678, D333N); assay: In cell CYP1B1 activity assay, D333N variant; settings: for logSI D333N: log of the ratio of IC50 values mutant vs WT (Fig. 3c)
T2 sequence (Q16678 1-543 D333N): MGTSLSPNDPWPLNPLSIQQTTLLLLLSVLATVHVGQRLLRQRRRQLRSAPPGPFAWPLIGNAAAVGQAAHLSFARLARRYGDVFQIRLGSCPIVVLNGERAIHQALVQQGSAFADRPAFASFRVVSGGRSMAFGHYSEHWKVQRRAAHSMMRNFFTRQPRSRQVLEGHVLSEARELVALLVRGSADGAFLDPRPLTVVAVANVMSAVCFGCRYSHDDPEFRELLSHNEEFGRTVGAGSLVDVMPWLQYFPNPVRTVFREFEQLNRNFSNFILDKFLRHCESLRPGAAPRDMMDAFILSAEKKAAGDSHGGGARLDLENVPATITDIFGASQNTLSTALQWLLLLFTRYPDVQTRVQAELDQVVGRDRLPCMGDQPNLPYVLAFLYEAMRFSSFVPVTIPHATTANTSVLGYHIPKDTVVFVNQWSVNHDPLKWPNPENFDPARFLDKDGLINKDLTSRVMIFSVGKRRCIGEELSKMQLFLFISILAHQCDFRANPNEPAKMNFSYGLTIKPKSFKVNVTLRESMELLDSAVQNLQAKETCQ
Description: Site directed mutagenesis was used to probe the importance of specific active-site contacts identified through the structural assessment (Fig. 3a, b) and simulations. In all cases, conservative mutations were made to maintain polar or hydrophobic character and approximate size. The aromatic residues that frame the inhibitor binding site, Phe143 and Phe231, were mutated to Leu to determine the importance of the π interactions. In addition, the Ser127 residue, located in the upper corner of the active site on the B-C loop, was chosen for mutation based on the simulations. This amino acid transiently contacts the inhibitors, but also forms a hydrogen bond with Asp326 of the I-helix, and thus may impact the position of this helix with regards to the B-C loop. […] Rather than directly mutating these residues in the I-helix, neighboring residues Gln332 and Asp333 were targeted, with the hope of interrupting amino acid interactions that position the helix within the active site.
The ratio of IC50 values for the WT vs. the mutant are shown in Fig. 3c and reflects the importance of the specific contact; the log of the value is used to aid in visualization.
(§3) Cell lines were seeded onto Geltrex coated 96-well plates at 40,000 cells/well, and grown overnight in DMEM media containing 1 μg/mL tetracycline. The media was then replaced with Opti-MEM supplemented with 2% FBS and 1 μg/mL tetracycline. Compounds were serially diluted in Opti-MEM supplemented with 2% FBS and 1 μg/mL tetracycline and an equal volume of compound added to the cells (n = 3). Following a 1 h incubation, resorufin ethyl ether (REE; for CYP1B1 and 1A1) or dibenzylfluorescein (DBF; for 19A1) was added to the cells for a total concentration of 5 μM for REE and 1 μM for DBF. […] Dose–response curves were generated in Prism and normalized using the no-compound control (set as 100% activity) and the no-cell control (set as 0% activity; this value in the raw data reflects the background fluorescence of the dye alone).

CYP1A1 = target: T3, CYP1A1 (Homo sapiens, UniProt P04798); assay: In cell activity assay for CYP1A1 (7-ethoxyresorufin conversion, HEK293 T-Rex cells); settings: for % Enzyme Activity: CYP1A1, dark; for SI (1B1:1A1): ratio of IC50 CYP1A1 to CYP1B1, for complexes 4–6 the IC50 (light) values were used; for IC50: REE
T3 sequence (P04798 1-512): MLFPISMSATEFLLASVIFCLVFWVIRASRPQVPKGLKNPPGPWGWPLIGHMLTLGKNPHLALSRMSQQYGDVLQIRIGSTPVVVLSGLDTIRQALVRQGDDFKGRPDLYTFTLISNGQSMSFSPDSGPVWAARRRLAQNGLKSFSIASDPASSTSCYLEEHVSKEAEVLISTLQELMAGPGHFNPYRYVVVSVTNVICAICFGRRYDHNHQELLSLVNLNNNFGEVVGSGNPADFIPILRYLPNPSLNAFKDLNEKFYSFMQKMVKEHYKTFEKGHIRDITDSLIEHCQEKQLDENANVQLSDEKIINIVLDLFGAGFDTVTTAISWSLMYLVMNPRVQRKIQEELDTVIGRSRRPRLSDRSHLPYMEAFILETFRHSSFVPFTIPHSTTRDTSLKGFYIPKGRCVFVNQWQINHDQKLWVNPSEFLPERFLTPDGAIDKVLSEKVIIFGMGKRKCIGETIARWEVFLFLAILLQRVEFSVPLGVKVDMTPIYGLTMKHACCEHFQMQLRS
Description: A stable HEK cell line was created with CYP1B1 expression under the control of tetracycline to facilitate regulated and titratable expression (see the Methods section for more details). A cell line was also created for CYP1A1 as a counter screen to evaluate selectivity. […] The fluorogenic substrate, 7-ethoxyresorufin (REE), is a validated substrate for both CYPs and was used in both assays. Cytochrome P450 oxidoreductase (POR) is the required reductase partner for CYPs, and was also overexpressed in these systems to improve catalytic efficiency and the resulting signal for the assay.
Both the CYP and POR expression was under the control of the TetO2 inducible CMV promoter[26].
Cell lines were generated in the HEK293 T-Rex cell line. Following transfection, cells were selected with 500 μg/mL Zeocin, and 7.5 μg/mL Blasticidin to create a stable pool. Inducible expression of CYP and POR was confirmed by immunoblot. […] The lines were maintained with 250 μg/mL Zeocin and 7.5 μg/mL Blasticidin to ensure continued selective pressure.
as §3
For the light-activated compounds, the experiment was modified as follows: Cells were seeded and grown overnight as described above. Media was replaced with L-15 containing 1 μg/mL tetracycline; L-15 media was used in place of opti-MEM™ to maintain CO2 outside the incubator, and to prevent cellular damage from light. Compounds were serially diluted in L-15 with 1 μg/mL tetracycline and added to the cells followed by a 1 h incubation. […] REE or DBF was added as described above.

[2] = test system: cytochrome P450 enzymes in phLMs; assay: Inhibition of cytochrome P450 enzymes in pooled human liver microsomes (phLM); type: biochemical; settings: for SI (1B1:phLM): ratio of IC50 phLM to CYP1B1, for complexes 4–6 IC50 (light); for enzyme activity pHLM: dark, scale 0–100
Text: as §1, §2

[3] = Dark, conversion of dibenzylfluorescein (DBF), read-out: IC50 CYP19A1 Dark

Structure (SMILES): COc1ccc(C=Cc2ccncc2)c(OC)c1 [Compound 3]
- IC50 (CYP19A1; [3]): 14.4 µM
- IC50 [1]: 0.334 µM
- logSI D333N (CYP1B1 D333N): 3.4
- % Enzyme Activity (CYP1A1; Log Conc 0.045757): 84.2841% and 102.432% and 105%
- % Enzyme Activity (CYP1A1; Log Conc 0.522879): 59.4676% and 67.9492% and 76.5686%
- % Enzyme Activity (CYP1A1; Log Conc 1): 14.8056% and 20.3883% and 24.2847%
- % Enzyme Activity (CYP1A1; Log Conc 1.47712): 0.5263% and 0.2508% and 0.3665%
- % Enzyme Activity (CYP1A1; Log Conc -0.43136): 103.457% and 112.898% and 125.706%
- % Enzyme Activity (CYP1A1; Log Conc -0.90849): 103.209% and 120.806% and 117.825%
- % Enzyme Activity (CYP1A1; Log Conc -1.38561): 95.9953% and 108.125% and 129.481%
- % Enzyme Activity (CYP1A1; Log Conc -1.86273): 106.428% and 95.389% and 98.1832%

- IC50 (CYP19A1; [3]): 10.7 µM
- IC50 [1]: 1.18 µM
- SI (1B1:phLM) [2]: 16
- IC50 (CYP1B1 D333N): 5 µM
- logSI D333N (CYP1B1 D333N): 1.8
- % Enzyme Activity (CYP1A1; Log Conc 0.045757): 97.5755% and 125.129% and 102.858%
- % Enzyme Activity (CYP1A1; Log Conc 0.522879): 79.4229% and 93.0687% and 81.8125%
- % Enzyme Activity (CYP1A1; Log Conc 1): 15.2494% and 25.1537% and 27.5852%
- % Enzyme Activity (CYP1A1; Log Conc -0.43136): 110.341% and 133.598% and 109.681%
- % Enzyme Activity (CYP1A1; Log Conc -0.90849): 118.484% and 126.806% and 121.555%
- % Enzyme Activity (CYP1A1; Log Conc -1.38561): 117.981% and 113.967% and 112.29%
- % Enzyme Activity (CYP1A1; Log Conc -1.86273): 107.668% and 117.038% and 124.375%
- % Enzyme Activity (CYP1A1; Log Conc -2.33985): 98.3615% and 101.034% and 100.604%
- SI (1B1:1A1) (CYP1A1): 175
Structure (SMILES): COc1ccc(/C=C/c2ccncn2)c(OC)c1 [Compound 2]
- Ratio IC50 (mutant)/ IC50 (WT), D333N (CYP1B1 D333N): 66

Structure (SMILES): COc1ccc(/C=C/c2cc[n+]([Ru-4]345([n+]6ccccc6-c6cccc([n+]63)-c3cccc[n+]34)[n+]3c(cc(C(=O)[O-])c4ccccc43)-c3cc(C(=O)[O-])c4ccccc4[n+]35)cc2)c(OC)c1 [Compound 6]
- % Enzyme Activity (CYP19A1; Log Conc 0.045757): 105.406% and 101.538% and 104.022%
- % Enzyme Activity (CYP19A1; Log Conc 0.522879): 104.302% and 98.6869% and 100.038%
- % Enzyme Activity (CYP19A1; Log Conc 1): 98.3957% and 97.4287% and 99.555%
- % Enzyme Activity (CYP19A1; Log Conc 1.47712): 84.792% and 87.3743% and 76.9903%
- % Enzyme Activity (CYP19A1; Log Conc -0.43136): 108.571% and 102.071% and 105.115%
- % Enzyme Activity (CYP19A1; Log Conc -0.90849): 106.835% and 107.302% and 104.318%
- % Enzyme Activity (CYP19A1; Log Conc -1.38561): 104.082% and 105.269% and 104.335%
- % Enzyme Activity (CYP19A1; Log Conc -1.86273): 107.692% and 92.0059% and 100.302%
- IC50 (CYP19A1; [3]): > 30 µM
- IC50 (CYP19A1; Light: 660 nm, 58.7 J/cm^2, DBF, read-out: IC50 CYP19A1 Light): 18.8 µM
- SI (1B1:19A1) (CYP19A1; ratio of IC50 CYP19A1 to CYP1B1, for complexes 4–6 IC50 (light)): 62,800
- IC50 ([2]; Dark, conversion of 7-benzoyloxy-4-trifluoromethylcoumarin, read-out: IC50 phLM Dark): ~30 µM
- IC50 ([2]; Light: 660 nm, 58.7 J/cm^2, read-out: IC50 phLM Light): 1.28 µM
- enzyme activity pHLM ([2]; Log conc 0.273001): 89.9976
- enzyme activity pHLM ([2]; Log conc 0.875061): 84.6565
- enzyme activity pHLM ([2]; Log conc 1.47712): 45.9092
- enzyme activity pHLM ([2]; Log conc -0.329059): 93.178
- enzyme activity pHLM ([2]; Log conc -0.931119): 88.2981
- enzyme activity pHLM ([2]; Log conc -1.53318): 91.697
- enzyme activity pHLM ([2]; Log conc -2.13524): 93.7121
- SI (1B1:phLM) [2]: 4300
- % Enzyme Activity (CYP1A1; Log Conc 0.39794): 91.0522% and 92.8898%
- % Enzyme Activity (CYP1A1; Log Conc 1): 101.782% and 110.804%
- % Enzyme Activity (CYP1A1; Log Conc -0.20412): 95.4892% and 97.456%
- % Enzyme Activity (CYP1A1; Log Conc -0.80618): 104.418% and 113.985%
- % Enzyme Activity (CYP1A1; Log Conc -1.40824): 109.608% and 108.283%
- % Enzyme Activity (CYP1A1; Log Conc -2.0103): 108.509% and 109.086%
- % Enzyme Activity (CYP1A1; Log Conc -2.61236): 100.346% and 103.098%
- % Enzyme Activity (CYP1A1; Log Conc -3.21442): 102.096% and 97.9039%
- SI (1B1:1A1) (CYP1A1): >100,000
- IC50 (CYP1A1; read-out: IC50 CYP1A1 Dark, Dark, n = 3): > 30 µM
- IC50 (CYP1A1; read-out: IC50 CYP1A1 Light, Light: 660 nm, 58.7 J/cm^2): > 30 µM
